# Literature values in patent publication US8715648B2, “Method for treating obesity with anti-obesity formulations and omega 3 fatty acids for the reduction of body weight in cardiovascular disease patients (CVD) and diabetics” (Pivotal Therapeutics Inc., priority 2011, dated 2014).
# Biological target: CB1R (Homo sapiens, UniProt P21554)
# Details: in vivo
# Sequence of CB1R (P21554 whole entry): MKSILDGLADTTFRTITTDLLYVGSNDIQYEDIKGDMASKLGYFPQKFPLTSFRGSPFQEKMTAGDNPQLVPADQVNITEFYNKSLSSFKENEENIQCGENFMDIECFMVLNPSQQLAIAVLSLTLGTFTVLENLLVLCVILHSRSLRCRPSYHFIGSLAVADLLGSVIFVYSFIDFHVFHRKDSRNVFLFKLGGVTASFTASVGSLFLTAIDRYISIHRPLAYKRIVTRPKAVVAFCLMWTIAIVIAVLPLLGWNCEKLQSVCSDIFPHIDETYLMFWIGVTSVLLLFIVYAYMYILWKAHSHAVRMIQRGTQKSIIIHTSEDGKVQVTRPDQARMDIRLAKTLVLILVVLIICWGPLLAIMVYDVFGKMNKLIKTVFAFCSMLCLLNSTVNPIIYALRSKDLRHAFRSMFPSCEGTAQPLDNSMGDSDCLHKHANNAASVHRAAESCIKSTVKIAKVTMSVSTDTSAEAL
smiles,measurement,value
"CCNC1(C(N)=O)CCN(c2ncnc3c2nc(-c2ccccc2Cl)n3-c2ccc(Cl)cc2)CC1.Cl [CP-945,598]",Reason for failure of phase III clinical trials,"psychiatric adverse reactions, including severe depression and anxiety"
